The nature of data set [1]: Saturation limit of xanomeline in acrylic adhesive. Type of data set: physicochemical. An excerpt:
The values had been derived from clear solutions of the drug in the adhesive. Unfortunately, the saturation limit of about 23-28% (w/w) in this polymer limits the utilization of this unexpected advantage of highly enriched xanomeline preparations. It is concluded from this unexpected results that an optimum formulation has to contain a slightly subsaturated, saturated or even supersaturated amount of xanomeline for best performance.

Data set [2] concerns muscarinic receptors in the brain. Nature of the data set: Ex vivo 3H-pirenzepine binding in rat brain after patch application. The conditions noted are these: after oral administration. The method, then: The patches prepared as stated herein were applied to rats. The rats were killed in pairs at various time points after application and the rat brains were removed and frozen. The binding of the M1 antagonist ligand, ^3 H-pirenzepine, to muscarinic receptors in the brain was determined. The decrease in binding is indicative of drug or active metabolite present in the brain. The effect of the drug after oral administration lasts less than 6 hours. The percent of control ex vivo pirenzepine binding at 6 hours was 33%, at 12 hours 15%, at 24 hours 26%, and at 48 hours 53%. The mean plasma concentration using this patch formulation was as follows: […]
The patches prepared as stated herein were applied to rats. The rats were killed in pairs at various time points after application and the rat brains were removed and frozen. The binding of the M1 antagonist ligand, ^3 H-pirenzepine, to muscarinic receptors in the brain was determined. The decrease in binding is indicative of drug or active metabolite present in the brain. The effect of the drug after oral administration lasts less than 6 hours. The percent of control ex vivo pirenzepine binding at 6 hours was 101%, at 12 hours 89%, at 24 hours 75%, and at 48 hours 105%.

For the compound `CCCCCCOc1nsnc1C1=CCCN(C)C1` [xanomeline, 3-[4-(hexyloxy)-1,2,5-thiadiazol-3-yl]-1,2,5,6-tetrahydro-1-methylpyridine], the “saturation limit in this polymer” value in data set [1] is 23-28 % (w/w). In addition, the “duration of the effect of the drug” value in data set [2] is on record as “less than 6 hours”.

(Values after patent publication US5980933A, “Transdermal formulation of xanomeline” (Eli Liily and Company, priority 1997, dated 1999).)
